From patent US20050260126A1 (priority 2002, published 2005)
Counter-ions that a name gives are not always drawn.

Assays:
[1] = tested on: abnormal prion proteins (kuru plaques) in brain sections of GSS patients; set-up: species or system human; settings: GSS patient brain sections, 10-200 μM in 50% ethanol, 30 minutes
[2] = tested on: abnormal prion proteins in ScN2a cells with persistent infection of scrapie; experiment: cells; assay type: cell-based, mouse; settings: for IC50: Mus musculus, ScN2a, 96 h, read-out: Inhibitory effects on producing abnormal prion protein IC50; for Inhibitory effects on producing abnormal prion proteins (in words): ScN2a cells
ScN2a cells = settings: for Concentration of inhibiting cell proliferation TC: mouse
in vivo = settings: male, Crj:CD1, mouse, iv
[3] = Slc:ICR, mouse, not told, iv

Row | Compound | Detection of spotted depositions of abnormal prion proteins (fluorescent signals) [1] | IC50 [2] | Concentration of inhibiting cell proliferation TC (ScN2a cells) | MTD (in vivo) | Permeability into the brain: content in Brain [3] | Permeability into the brain: content in Plasma [3] | Inhibitory effects on producing abnormal prion proteins (in words) [2] | TC and safety concentration margin (in words) (ScN2a cells)
1 | CNc1ccc(/C=C/c2nc3ccccc3o2)cc1 [BF-169, 2-(4-methylamino)-styrylbenzoxazole] | spotted fluorescent signals were observed | 10 nM | 100 µM | ≥ 10 mg/kg |  |  |  | 
2 | CN(C)c1ccc(/C=C/c2nc3cc(F)ccc3s2)cc1 [BF-162, 2-(4-dimethylamino) styryl-5-fluorobenzo-thiazole] | spotted fluorescent signals were observed | 10 nM | 100 µM |  |  |  |  | 
3 | Nc1ccc(C(=O)Nc2ccc(-c3nc4ccc(NC(=O)c5ccc(N)cc5)c(Cl)c4[nH]3)cc2)cc1 [Compound N-227, 4-[6-(N′-(4-amino-benzoyl)amino)-7-chlorobenzimidazol-2-yl]-N-(4-aminobenzoyl)aniline] | spotted fluorescent signals were observed | 10 nM | 10 µM |  |  |  |  | 
4 | COc1cc(/C=C/c2nc3ccccc3s2)cc(OC)c1 [Compound N-408, 2-[2-(3,5-dimethoxy-phenyl)ethenyl]-benzothiazole] | spotted fluorescent signals were observed | 10 nM | 100 µM |  |  |  |  | 
5 | CN(C)c1ccc(/C=C/c2ccco2)cc1 [BF-142, 2-[2-(4-dimethylamino-phenyl)ethenyl]furan] | spotted fluorescent signals were observed | 10 nM | 100 µM |  |  |  |  | 
6 | CN(C)c1ccc(-c2ccc3ccccc3n2)cc1 [Compound N-310, 2-[(4-dimethylamino)-phenyl]quinoline] | spotted fluorescent signals were observed | 5 nM | 50 µM |  | 15 % ID/g or ml | 1.0 % ID/g or ml |  | 
7 | CN(C)c1ccc(/C=C/c2nc3cc(F)ccc3o2)cc1 [BF-133, 2-(4-dimethylamino) styryl-5-fluoro-benzoxazole] | spotted fluorescent signals were observed | 5 nM | 50 µM |  | 5.5 % ID/g or ml | 1.3 % ID/g or ml |  | 
8 | CN(C)c1ccc(/C=C/c2ccc3ccccc3n2)c(O)c1 [BF-193, 2-[2-(2-hydroxy-4-dimethylaminophenyl)ethenyl]quinoline] |  | 1.6 nM | 10 µM | ≥ 10 mg/kg | 5.2 % ID/g or ml | 2.7 % ID/g or ml |  | 
9 | Fc1ccc(/C=C/c2nc3ccccc3s2)cc1 [Compound N-453, 2-[2-(4-fluorophenyl)ethenyl]benzothiazole] |  | 1 nM | 100 µM | ≥ 10 mg/kg | 5.0 % ID/g or ml | 1.4 % ID/g or ml | highly inhibitory effects | higher TCs, therefore higher safety concentration margins
10 | CN(C)c1ccc(/C=C/c2nc3ccccc3o2)cc1 [Compound N-282, 2-(4-dimethylamino) styrylbenzoxazole] | spotted fluorescent signals were observed | 50 nM | 50 µM |  | 4.0 % ID/g or ml | 0.7 % ID/g or ml |  | 
11 | Cc1ccc2sc(/C=C/c3ccccc3C)nc2c1 [Compound N-440, 2-[2-(2-methylphenyl)-ethenyl]-5-methyl-benzothiazole] | spotted fluorescent signals were observed | 100 nM | 100 µM |  |  |  |  | 
12 | CNc1ccc(-c2nc3ccc(O)cc3s2)cc1 [BF-172, 2-(4-methylamino)-phenyl-6-hydroxybenzo thiazole] |  | 1.6 nM | >10 µM | ≥ 10 mg/kg | 4.9 % ID/g or ml | 2.9 % ID/g or ml |  | 
13 | Fc1ccc(/C=C/c2nc3ccccc3o2)cc1 [BF-208, 2-[2-(4-fluorophenyl)ethenyl]benzoxazole] |  | 0.8 nM | >10 µM | ≥ 10 mg/kg | 11.0 % ID/g or ml | 0.53 % ID/g or ml |  | 
14 | Nc1ccc(/C=C/c2nc3ccccc3[nH]2)cc1 [Compound N-398, 4-[2-(2-benzimidazolyl)-ethenyl]benzenamine sulfate] | spotted fluorescent signals were observed | 5 nM | 50 µM |  |  |  |  | 
15 | Cc1nc(/C=C/c2ccc(N(C)C)cc2)oc1C [BF-137, 2-[2-(4-dimethylamino-phenyl)ethenyl]-4-5-dimethyloxazole] |  | 100 nM | 100 µM | ≥ 10 mg/kg | 6.5 % ID/g or ml | 2.9 % ID/g or ml |  | 
16 | Clc1ccccc1/C=C/c1nc2ccccc2s1 [Compound N-454, 2-[2-(2-chlorophenyl)ethenyl]benzothiazole] | spotted fluorescent signals were observed | 10 nM | 100 µM |  |  |  |  | 
17 | CN(C)c1ccc(/C=C/c2nc3ccccc3s2)c(O)c1 [BF-192, 2-[2-(2-hydroxy-4-dimethylaminophenyl)ethenyl]benzothiazole] |  | 1.6 nM | >10 µM | ≥ 10 mg/kg | 5.5 % ID/g or ml | 2.6 % ID/g or ml |  | 
18 | CN(C)c1ccc2cc(-c3nc4cc(F)ccc4o3)ccc2c1 [BF-151, 5-fluoro-2-(6-dimethyl-aminonaphthalen-2-yl)benzoxazole] | spotted fluorescent signals were observed | 10 nM | 100 µM |  |  |  |  | 
19 | CN(C)c1ccc(/C=C/c2nc3ccccc3s2)cc1 [Compound N-276, 4-[2-(2-benzothiazolyl)-ethenyl]-N,N-dimethyl-benzenamine] | spotted fluorescent signals were observed | 5 nM | 50 µM |  |  |  |  | 
20 | CCN(CC)c1ccc(/C=C/c2cn3cc(F)ccc3n2)cc1 [BF-136, 2-[2-(4-diethylaminophenyl)ethenyl]-6-fluoroimidazo[1,2-a]-pyridine] | spotted fluorescent signals were observed | 1 nM | 10 µM |  |  |  | highly inhibitory effects | 
21 | CNc1ccc(/C=C/C=C/c2nc3ccccc3s2)cc1 [BF-187, 2-[[4-(4-methylamino)-phenyl]-1,3-butadienyl]-benzothiazole] |  | 10 nM | 10 µM | ≥ 10 mg/kg | 3.6 % ID/g or ml | 1.3 % ID/g or ml |  | 
22 | C(=C\c1nc2ccccc2[nH]1)/c1ccccc1 [Compound N-491, 2-styrylbenzimidazole] |  | 10 nM | 100 µM | ≥ 10 mg/kg | 7.4 % ID/g or ml | 2.3 % ID/g or ml |  | 
23 | CN(C)c1ccc2cc(-c3nc4cc(F)ccc4s3)ccc2c1 [BF-154, 5-fluoro-2-(6-dimethyl-aminonaphthalen-2-yl)benzothiazole] | spotted fluorescent signals were observed |  |  |  | 1.1 % ID/g or ml | 1.4 % ID/g or ml |  | 
24 | CN(C)c1ccc(/C=C/c2nc3ccc(F)cc3o2)cc1 [BF-148, 2-(4-dimethylamino) styryl-6-fluoro-benzoazole] | spotted fluorescent signals were observed | 1 nM | 10 µM |  |  |  | highly inhibitory effects | 
25 | CCN(CC)c1ccc(-c2ccc3ccccc3n2)cc1 [Compound N-313, 2-[(4-diethylamino)-phenyl]quinoline] | spotted fluorescent signals were observed | 500 nM | 50 µM |  | 4.6 % ID/g or ml | 1.1 % ID/g or ml |  | 
26 | CNc1ccc(C=Cc2ccc3ccccc3n2)c(CF)c1 [BF-195, 2-[2-(2-fluoromethyl-4-methylaminophenyl)-ethenyl]quinoline] |  | 32 nM | 10 µM | ≥ 10 mg/kg | 4.8 % ID/g or ml | 1.2 % ID/g or ml |  | 
27 | CN(C)c1ccc(/C=C/c2nc3cc4c(cc3s2)OCO4)cc1 [Compound N-277, 4-[2-(5,6-methylene-dioxy-benzothiazol-2-yl)ethenyl]-N,N-di-methylbenzenamin] | detection of spotted depositions of abnormal prion proteins | 50 nM | 50 µM |  |  |  |  | 
